Assay results from US9169217B2, “Arylalkyl esters of 4-amino-6-(substituted phenyl)-picolinates and 6-amino-2-(substituted phenyl)-pyrimidinecarboxylates and their use as selective herbicides for crops” (Dow AgroSciences LLC, priority 2011, dated 2015).
Read-outs that look alike come from different tables or passages of the source.

Assays:
Experiment in all cases: In-water applied herbicidal activity in transplanted paddy rice (Example 17)
Assay type in all cases: in vivo
[1] = system: Echinochloa crus-galli (L.) P.BEAUV. (barnyardgrass); conditions: for GR50 / GR80 / GR90: ECHCG, in-water applied, probit analysis; for GR50: 50% growth reduction; for GR80: 80% growth reduction; for GR90: 90% growth reduction; for pest or weed control at 17.5 g/ha / pest or weed control at 35 g/ha: Echinochloa crus-galli, 504 h, read-out: Visual Injury (%) ECHCG; for pest or weed control at 35 g/ha: 35 g ae/ha
In short: (§1)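 Ester forms of test compounds, in acetone diluted with aqueous Agri-dex (final 1.25% v/v crop oil concentrate), were injected into the flood water of paddy pots holding weeds or rice at the 2nd–3rd leaf stage in mud (pH ~7.3–7.8). Visual injury versus untreated plants was scored 0–100% after 3 weeks in greenhouse (~29/26 °C). GR50/GR80 were derived by probit analysis.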

[2] = system: Scirpus juncoides ROXB. (Japanese bulrush); conditions: for GR50 / GR80 / GR90: SCPJU, in-water applied, probit analysis; for GR50: 50% growth reduction; for GR80: 80% growth reduction; for GR90: 90% growth reduction
In short: as §1

[3] = system: Fimbristylis miliacea (L.) VAHL (globe fringerush); conditions: for GR50 / GR80 / GR90: FIMMI, in-water applied, probit analysis; for GR50: 50% growth reduction; for GR80: 80% growth reduction; for GR90: 90% growth reduction; for Visual Injury (%) FIMMI: rice cropping systems, in-water applied (paddy), 35 g ae/ha, 21 DAA, may represent multiple trials
In short: as §1

[4] = rice cropping systems, in-water applied (paddy), 17.5 g ae/ha, 21 DAA, may represent multiple trials
[5] = rice cropping systems, in-water applied (paddy), 21 DAA, may represent multiple trials

COC(=O)c1nc(-c2ccc(Cl)c(OC)c2F)c(F)c(N)c1Cl [E, methyl 4-amino-3-chloro-6-(4-chloro-2-fluoro-3-methoxyphenyl)-5-fluoropicolinate, reference compound]
GR50 [1]: 33.2 g ae/ha
GR80 [1]: 58.5 g ae/ha
GR90 [1]: 78.7 g ae/ha
pest or weed control at 17.5 g/ha [1, 4]: 26%
GR50 [2]: 9.6 g ae/ha
GR80 [2]: 20.0 g ae/ha
GR90 [2]: 29.5 g ae/ha
pest or weed control at 17.5 g/ha ([2]; Schoenoplectiella juncoides, 504 h, rice cropping systems, in-water applied (paddy), 17.5 g ae/ha, 21 DAA, may represent multiple trials, read-out: Visual Injury (%) SCPJU): 75%
GR50 [3]: 14.4 g ae/ha
GR80 [3]: 21.7 g ae/ha
GR90 [3]: 26.8 g ae/ha

COc1c(Cl)ccc(-c2cc(N)c(Cl)c(C(=O)OCc3ccccc3)n2)c1F [Compound 39]
pest or weed control at 35 g/ha [1, 5]: 100%
Visual Injury (%) FIMMI [3]: 100%

COC(=O)c1nc(-c2ccc(C3CC3)cc2)c(F)c(N)c1Cl [Compound B, methyl 4-amino-3-chloro-6-(4-cyclopropylphenyl)-5-fluoropicolinate]
pest or weed control at 17.5 g/ha [1, 4]: 10%

Nc1c(F)c(-c2ccc(C3CC3)cc2)nc(C(=O)OCc2ccccc2)c1Cl [Compound 42, benzyl 4-amino-3-chloro-6-(4-cyclopropylphenyl)-5-fluoropicolinate]
pest or weed control at 17.5 g/ha [1, 4]: 70%

COC(=O)c1nc(-c2ccc(Cl)c(OC)c2F)cc(N)c1Cl [Compound G, methyl 4-amino-3-chloro-6-(4-chloro-2-fluoro-3-methoxyphenyl)picolinate, reference compound]
pest or weed control at 35 g/ha [1, 5]: 74%
Visual Injury (%) FIMMI [3]: 61%

COC(=O)c1nc(-c2ccc(Cl)c(OC)c2F)nc(N)c1OC [Compound F, methyl 6-amino-2-(4-chloro-2-fluoro-3-methoxyphenyl)-5-methoxypyrimidine-4-carboxylate, reference compound]
pest or weed control at 35 g/ha [1, 5]: 0%
pest or weed control at 35 g/ha ([2]; Schoenoplectiella juncoides, 504 h, rice cropping systems, in-water applied (paddy), 35 g ae/ha, 21 DAA, may represent multiple trials, read-out: Visual Injury (%) SCPJU): 50%

COc1c(Cl)ccc(-c2nc(C(=O)OCc3ccccc3)c(Cl)c(N)c2F)c1F [Compound 1, benzyl 4-amino-3-chloro-6-(4-chloro-2-fluoro-3-methoxyphenyl)-5-fluoropicolinate]
GR50 [1]: 10.9 g ae/ha
GR80 [1]: 21.8 g ae/ha
GR90 [1]: 31.2 g ae/ha
pest or weed control at 17.5 g/ha [1]: 87%
GR50 [2]: <8.75 g ae/ha
GR80 [2]: 4.4 g ae/ha
GR90 [2]: 10.8 g ae/ha
pest or weed control at 17.5 g/ha ([2]; Schoenoplectiella juncoides, 504 h, read-out: Visual Injury (%) SCPJU): 99%
GR50 [3]: <17.5 g ae/ha
GR80 [3]: <17.5 g ae/ha
GR90 [3]: <17.5 g ae/ha
